The subject of data set [1] is MCF-10A. Kind of data set: Cytotoxicity against human MCF10A cells at 1 uM by MTT assay. Format: cell-based. Background: Tetrazolium dyes change colour on reduction, which living cells bring about.
The subject of data set [2] is DU-145. Kind of data set: Cytotoxicity against human androgen-independent DU145 cells by MTT assay. Type of data set: functional, cell-based.
The test system of data set [3] is DU-145. Description: Cytotoxicity against human androgen-independent DU145 cells at 1 uM by MTT assay. Type of data set: functional.
Data set [4] relates to PC-3. Description: Cytotoxicity against human androgen-independent PC3 cells by MTT assay. Type of data set: functional, cell-based.
The subject of data set [5] is LNCaP. Kind of data set: Cytotoxicity against human androgen-dependent LNCAP cells at 1 uM by MTT assay. Type of data set: functional.
The test system of data set [6] is PC-3. Description: Cytotoxicity against human androgen-independent PC3 cells at 1 uM by MTT assay. Type of data set: functional.
Data set [7] has as its system LNCaP. Kind of data set: Cytotoxicity against human androgen-dependent LNCAP cells by MTT assay. Type of data set: functional, cell-based.
Data set [8] concerns DU-145. Kind of data set: Ratio of doxorubicin IC50 to compound IC50 for human androgen-independent DU145 cells.

SMILES strings stand for the structures.

Experimental findings from ChEMBL document CHEMBL1955722, “1,2,4-Oxadiazoles: a new class of anti-prostate cancer agents” (Bioorg Med Chem Lett, 2012) are described below.

In the case of `CC(O)(CSc1ccc(Cl)cc1)c1nc(-c2ccc([N+](=O)[O-])c(C(F)(F)F)c2)no1` (centres undefined), the Activity in data set [1] is 10.35%; in data set [3], 48.93%; in data set [5], 28.93%; in data set [6] it was 39.61%. The IC50 (commonly the concentration needed to halve the response being measured) in data set [2] is 1.3 µM; in data set [4], 3 µM; in data set [7] it was over 100 µM.
On to `CC(O)(CSc1ccc(Br)cc1)c1nc(-c2ccc([N+](=O)[O-])c(C(F)(F)F)c2)no1` (centres undefined), for which the Activity came out at 10.55% in data set [1], 48.71% in data set [3], 27.45% in data set [5] and 31.77% in data set [6]. Moreover, the values for the IC50 in data set [2], in data set [4] and in data set [7] were 1.6 µM, 51 µM and 40 µM, respectively.
On to `CC(O)(CSc1ccccc1)c1nc(-c2ccccc2)no1` (centres undefined), for which the IC50 in data set [2] was over 100 µM.
The same measure, in the same setting: as for `CC(O)(CSc1ccc(F)cc1)c1nc(-c2ccccc2)no1` (centres undefined), the figure is over 100 µM; as for `CC(O)(CSc1ccc(Cl)cc1)c1nc(-c2ccccc2)no1` (centres undefined), 70.7 µM.
The same measure, in the same setting: as for `CC(O)(CSc1ccc(Br)cc1)c1nc(-c2ccccc2)no1` (centres undefined), the figure is over 100 µM; as for `CC(O)(CSc1ccccc1)c1nc(-c2ccc(Cl)cc2)no1` (centres undefined), 4.5 µM.
The same measure, in the same setting: as for `CC(O)(CSc1ccc(F)cc1)c1nc(-c2ccc(Cl)cc2)no1` (centres undefined), the figure is 36.2 µM; as for `CC(O)(CSc1ccc(Cl)cc1)c1nc(-c2ccc(Cl)cc2)no1` (centres undefined), 14.5 µM; as for `CC(O)(CSc1ccc(Br)cc1)c1nc(-c2ccc(Cl)cc2)no1` (centres undefined), 6.5 µM.
In data set [2], `CC(O)(CSc1ccccc1)c1nc(-c2ccc(F)c(Cl)c2)no1` (centres undefined) gave an IC50 of 5.5 µM.
As to `CC(O)(CSc1ccc(F)cc1)c1nc(-c2ccc(F)c(Cl)c2)no1` (centres undefined), the Activity came to 12.44% in data set [1], 47.84% in data set [3], 32.86% in data set [5] and 40.77% in data set [6]. Moreover, the IC50 was 2.9 µM in data set [2], 11.5 µM in data set [4] and over 100 µM in data set [7].
Turning to `CC(O)(CSc1ccc(Cl)cc1)c1nc(-c2ccc(F)c(Cl)c2)no1` (centres undefined), the Activity in data set [1] is given as 10.62%; in data set [3] it was 68.41%; in data set [5], 33.85%; in data set [6], 44.39%. For the same compound, the IC50 was 0.5 µM in data set [2], 10 µM in data set [4] and 26.4 µM in data set [7]. For the same compound, in data set [8], the “Ratio IC50” value is reported as 11.6.
Take `CC(O)(CSc1ccc(Br)cc1)c1nc(-c2ccc(F)c(Cl)c2)no1` (centres undefined): half-maximal inhibition in data set [2] (IC50) required 8.8 µM.
Take `CC(O)(CSc1ccccc1)c1nc(-c2ccc([N+](=O)[O-])c(C(F)(F)F)c2)no1` (centres undefined): the Activity is on record as 12.62% in data set [1], 49.62% in data set [3], 31.1% in data set [5] and 49.02% in data set [6]. The IC50 in data set [2] was determined as 3 µM; in data set [4], 3.5 µM; in data set [7] it was 9.67 µM.
For `CC(O)(CSc1ccc(F)cc1)c1nc(-c2ccc([N+](=O)[O-])c(C(F)(F)F)c2)no1` (centres undefined), the Activity is 11.35% in data set [1], 47.28% in data set [3], 26.88% in data set [5] and 46.89% in data set [6]. In addition, the IC50 in data set [2] stood at 5.1 µM; in data set [4], 5.5 µM; in data set [7] it was 8.15 µM.
Take `CC(O)(CS(=O)(=O)c1ccccc1)c1nc(-c2ccccc2)no1` (centres undefined): in data set [2], the IC50 was over 100 µM.
Same read-out and setting: as for `CC(O)(CS(=O)(=O)c1ccc(F)cc1)c1nc(-c2ccccc2)no1` (centres undefined), the figure is over 100 µM; as for `CC(O)(CS(=O)(=O)c1ccc(Cl)cc1)c1nc(-c2ccccc2)no1` (centres undefined), over 100 µM.
Same read-out and setting: as for `CC(O)(CS(=O)(=O)c1ccc(Br)cc1)c1nc(-c2ccccc2)no1` (centres undefined), the figure is over 100 µM; as for `CC(O)(CS(=O)(=O)c1ccccc1)c1nc(-c2ccc(Cl)cc2)no1` (centres undefined), over 100 µM.
The compound `CC(O)(CS(=O)(=O)c1ccc(F)cc1)c1nc(-c2ccc(Cl)cc2)no1` (centres undefined) registered an IC50 in data set [2] of over 100 µM.
Still for that read-out and setting: as for `CC(O)(CS(=O)(=O)c1ccc(Cl)cc1)c1nc(-c2ccc(Cl)cc2)no1` (centres undefined), the figure is over 100 µM; as for `CC(O)(CS(=O)(=O)c1ccc(Br)cc1)c1nc(-c2ccc(Cl)cc2)no1` (centres undefined), over 100 µM.
On the same count and under the same terms, as for `CC(O)(CS(=O)(=O)c1ccccc1)c1nc(-c2ccc(F)c(Cl)c2)no1` (centres undefined), the figure is over 100 µM.
The same measure, in the same setting: as for `CC(O)(CS(=O)(=O)c1ccc(F)cc1)c1nc(-c2ccc(F)c(Cl)c2)no1` (centres undefined), the figure is over 100 µM; as for `CC(O)(CS(=O)(=O)c1ccc(Cl)cc1)c1nc(-c2ccc(F)c(Cl)c2)no1` (centres undefined), 35.5 µM; as for `CC(O)(CS(=O)(=O)c1ccc(Br)cc1)c1nc(-c2ccc(F)c(Cl)c2)no1` (centres undefined), 75 µM.
`CC(O)(CS(=O)(=O)c1ccccc1)c1nc(-c2ccc([N+](=O)[O-])c(C(F)(F)F)c2)no1` (centres undefined) showed an IC50 in data set [2] of over 100 µM.
Regarding `CC(O)(CS(=O)(=O)c1ccc(F)cc1)c1nc(-c2ccc([N+](=O)[O-])c(C(F)(F)F)c2)no1` (centres undefined), the IC50 in data set [2] is over 100 µM.
Still for that read-out and setting: as for `CC(O)(CS(=O)(=O)c1ccc(Cl)cc1)c1nc(-c2ccc([N+](=O)[O-])c(C(F)(F)F)c2)no1` (centres undefined), the figure is 91 µM.
On to `CC(O)(CS(=O)(=O)c1ccc(Br)cc1)c1nc(-c2ccc([N+](=O)[O-])c(C(F)(F)F)c2)no1` (centres undefined), for which, in data set [2], the IC50 is over 100 µM.
In the case of `CC(O)(CS(=O)(=O)c1ccc(F)cc1)C(=O)Nc1ccc(C#N)c(C(F)(F)F)c1` (centres undefined) [BICALUTAMIDE], the IC50 came to 64 µM in data set [2], 77 µM in data set [4] and 1.71 µM in data set [7].
As to `COc1cccc2c1C(=O)c1c(O)c3c(c(O)c1C2=O)C[C@@](O)(C(=O)CO)C[C@@H]3O[C@H]1C[C@H](N)[C@H](O)[C@H](C)O1` [DOXORUBICIN], the IC50 is 5.8 µM in data set [2] and 1.05 µM in data set [4].
